# Assay results from patent publication US11034839B2, “Compounds, linked with haptens, for the detection of senescent cells” (THE UNIVERSITY OF MANCHESTER, priority 2016, dated 2021).
# What was measured:
# [1] = system: senescent cells in induced Saos2-p21 cells and irradiated human diploid lung fibroblasts (DLFs); experiment: Streptavidin-HRP/DAB labeling of cell spreads; type: cell-based; details: cell spreads on cover slips, panels 6ai and 6bi
# Method: In inventive example 3, the derivative […] was used to detect senescent cells in cell spreads using streptavidin-horse radish peroxidase (HRP)/DAB labeling.
# Induced and non-induced Saos2-p21^WAF1/Cip1 […] cells as well as human lung fibroblasts (DLFs) non- and y-irradiated were grown on cover slips and collected before and after the mentioned respective treatments for induction of senescence. Cover slips were treated as follows: • a. Fixation in ice-cold ethanol or methanol for 4 min. • b. Blocking of endogenous peroxidase activity with 3% H2O2 for 10 min. • c. Quick wash in 50% (v/v) ethanol. • d. Application of LG13 dye, diluted in ethanol and filtered, on cells for 10 min. • e. Quick wash in 50% (v/v) ethanol. • f. Transfer and wash in TBS or PBS solution. • g. Incubation in streptavidin-HRP (horse radish peroxidase) conjugated (dilution 1/200), for ½ hr at room temperature. • h. Quick wash in TBS or PBS solution. • i. Staining with 3,3′-Diaminobenzidine (DAB) solution (dilution 1/300 in TBS or PBS) for 1 min at room temperature. • j. Counterstain with Nuclear Fast Red, followed by mounting with glycerol and sealing with a cover slip. • k. Microscopy observation.
# [2] = system: senescent cells in irradiated human laryngeal tumors, palbociclib treated human melanoma cell xenografts, mouse bleomycin-injected lung, mouse lung adenomas; experiment: Streptavidin-HRP/DAB labeling of tissue sections; details: FIG. 5ai-di in comparison to FIGS. 2,3,4
# Text: In the inventive example 2, the derivative LG13 was used to detect senescent cells in tissue sections using streptavidin-horse radish peroxidase (HRP)/DAB labeling.
# Tissue sections were obtained from paraffin embedded, formalin fixed: (a) irradiated human laryngeal tumors, (b) palbociclib treated human melanoma cell xenografts, (c) mouse bleomycin-injected lung and (d) mouse lung adenomas. Subsequently, they were immobilized on glass microscopy slides by standard procedures and processed as follows: • a. Deparaffinization for 5 min at room temperature in xylene • b. Gradual rehydration in solutions of descending concentration of ethanol (100%, 80%, 70%, 50% v/v) and finally in TBS (Tris-buffered saline) or PBS (Phosphate-buffered saline) solution. • c. Blocking of endogenous peroxidase activity with 3% H2O2 for 10 min. • d. Gradual dehydration of biopsy material in 50% (v/v) ethanol followed by 70% (v/v) ethanol for 5 min each step. • e. Application of the new compound LG13, linked with biotin, diluted in ethanol and filtered, on biopsy material for 10 min. • f. Quick wash in 50% (v/v) ethanol. • g. Transfer and wash in TBS or PBS solution. • h. Incubation in streptavidin-HRP (horse radish peroxidase) conjugated (dilution 1/200), for ½ hr at room temperature. • i. Quick wash in TBS or PBS solution. • j. […]
# senescent cells = experiment: Flow cytometry analysis for detection of senescent cells in cell culture; type: cell-based; details: HIC assay adapted to flow cytometry, FIG. 10
# Method: In inventive example 7 the derivative LG13 was used to detect lipofuscin rich cells in cell aspirations or cell cultures by flow cytometry analysis.
# • 1. Cells harvested from culture are fixed in EtOH 70% at 4° C. • 2. Centrifuge at 1200 rpm for 5 min at RT. • 3. Wash ×1 in 5 ml PBS at RT. • 4. Centrifuge at 1200 rpm for 5 min at RT. • 5. Incubate in 0.1% Triton X/PBS for 15 min at RT. • 6. Centrifuge at 1200 rpm for 5 min at RT. • 7. Wash ×1 EtOH 50% for 5 min at RT • 8. Centrifuge at 1200 rpm for 5 min at RT. • 9. Wash ×1 EtOH 70% for 5 min at RT. • 10. Centrifuge at 1200 rpm for 5 min at RT. • 11. Cover cell pellet with compound LG13 and incubate for 8 min at RT. • 12. Centrifuge at 1200 rpm for 5 min at RT. • 13. Wash with EtOH 50% and centrifuge at 1200 rpm for 5 min at RT, repeat ×3. • 14. Wash ×1 in PBS. • 15. Centrifuge at 1200 rpm for 5 min at RT. • 16. Incubate with the primary anti-biotin antibody diluted 1:400 in PBS ([Hyb-8] ab201341, Abcam) for 60 min at 37° C. • 17. Wash ×1 with PBS. • 18. Centrifuge at 1200 rpm for 5 min at RT. • 19. Incubate with secondary antibody, goat anti-mouse 568 Alexa Fluor conjugated, diluted 1:100 in PBS [Thermo Fisher Scientific (Cat no: A-11004)] for 20-30 min in dark and on ice. • 20. Wash ×1 with PBS. • 21. Centrifuge at 1200 rpm for 5 min at RT.
smiles,measurement,setting,value
"CC1(COC(=O)CCCC[C@H]2SC[C@H]3NC(=O)N[C@H]32)Nc2cccc3c(/N=N/c4ccc(/N=N/c5ccccc5)c5ccccc45)ccc(c23)N1 (stereo partly drawn) [LG13, (2-methyl-6-((E)-(4-((E)-phenyldiazenyl)naphthalen-1-yl)diazenyl)-2,3-dihydro-1H-perimidin-2-yl)methyl 5-((3aR,4R,6aS)-2-oxohexahydro-1H-thieno[3,4-d]imidazol-4-yl)pentanoate]",colour of senescent cells after streptavidin-HRP/DAB detection,[1],clear dark-brown color
same,recognition of senescent cells compared to histochemical staining,[2],makes easier the recognition of senescent cells
same,detection of senescent cells by flow cytometry,senescent cells,detects robustly senescent cells
